Laboratory results: ChEMBL document CHEMBL2073748, “Na(+)-dependent carnitine transport by organic cation transporter (OCTN2): its pharmacological and toxicological relevance” (J Pharmacol Exp Ther, 1999)
Each block holds one compound with its values, some of them ahead of it. Starred links: 1 amine or outer side, 2 acyl side, 3 side chain; linkers in the order of their positions; H or OH if unused. Positions of bridges follow the written chain, without caps; N, C: chain ends. Non-standard residues stand in square brackets, D forms with d. Residues, ends and D or L forms follow the SMILES beside them. Chains are numbered I, II in the order given. Actinocin(9to1) = Cc1c2oc3c(C)ccc(C(=O)[*:1])c3nc-2c(C(=O)[*:2])c(N)c1=O; NMeV = CN[C@H](C(=O)O)C(C)C; Sar = CNCC(=O)O

How the values were obtained:
[1] = molecular target: T1, OCTN2 (organic cation/carnitine transporter 2) (Homo sapiens, UniProt O76082); experiment: TP_TRANSPORTER: inhibition of Carnitine uptake (Carnitine: 0.010? uM, S-methylmethionine sufonium: 500 uM) in OCTN2-expressing HEK293 cells; format: functional, cell-based; set-up: scale not given: the % may be the effect or the level left; settings: HEK293 cells that express OCTN2, probe Carnitine, read-out: Activity
T1 sequence (O76082 whole entry): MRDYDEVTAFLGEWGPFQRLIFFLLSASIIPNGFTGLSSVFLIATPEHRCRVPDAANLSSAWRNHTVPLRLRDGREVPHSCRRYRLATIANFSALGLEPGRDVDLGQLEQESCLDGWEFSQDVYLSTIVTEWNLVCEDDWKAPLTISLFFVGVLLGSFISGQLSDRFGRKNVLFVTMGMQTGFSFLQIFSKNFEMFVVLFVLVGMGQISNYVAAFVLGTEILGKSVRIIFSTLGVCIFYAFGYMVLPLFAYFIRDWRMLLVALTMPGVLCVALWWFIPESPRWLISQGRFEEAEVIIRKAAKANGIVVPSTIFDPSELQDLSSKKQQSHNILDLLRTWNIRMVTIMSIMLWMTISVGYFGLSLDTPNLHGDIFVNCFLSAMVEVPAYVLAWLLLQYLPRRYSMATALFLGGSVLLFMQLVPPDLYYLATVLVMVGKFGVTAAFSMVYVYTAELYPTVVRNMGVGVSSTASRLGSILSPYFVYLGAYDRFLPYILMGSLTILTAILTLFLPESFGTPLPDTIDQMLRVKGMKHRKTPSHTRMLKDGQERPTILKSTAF

[2] = molecular target: T1, OCTN2 (organic cation/carnitine transporter 2); experiment: TP_TRANSPORTER: inhibition of Carnitine uptake (Carnitine: 0.010? uM, MPP+: 100 uM) in OCTN2-expressing HEK293 cells; format: functional, cell-based; set-up: scale not given: the % may be the effect or the level left; settings: HEK293 cells that express OCTN2, probe Carnitine, read-out: Activity
[3] = molecular target: T2, Organic cation/carnitine transporter 2 (Homo sapiens, UniProt O76082); experiment: TP_TRANSPORTER: uptake in OCTN2-expressing HEK293 cells; format: functional, cell-based
T2 sequence (O76082 whole entry): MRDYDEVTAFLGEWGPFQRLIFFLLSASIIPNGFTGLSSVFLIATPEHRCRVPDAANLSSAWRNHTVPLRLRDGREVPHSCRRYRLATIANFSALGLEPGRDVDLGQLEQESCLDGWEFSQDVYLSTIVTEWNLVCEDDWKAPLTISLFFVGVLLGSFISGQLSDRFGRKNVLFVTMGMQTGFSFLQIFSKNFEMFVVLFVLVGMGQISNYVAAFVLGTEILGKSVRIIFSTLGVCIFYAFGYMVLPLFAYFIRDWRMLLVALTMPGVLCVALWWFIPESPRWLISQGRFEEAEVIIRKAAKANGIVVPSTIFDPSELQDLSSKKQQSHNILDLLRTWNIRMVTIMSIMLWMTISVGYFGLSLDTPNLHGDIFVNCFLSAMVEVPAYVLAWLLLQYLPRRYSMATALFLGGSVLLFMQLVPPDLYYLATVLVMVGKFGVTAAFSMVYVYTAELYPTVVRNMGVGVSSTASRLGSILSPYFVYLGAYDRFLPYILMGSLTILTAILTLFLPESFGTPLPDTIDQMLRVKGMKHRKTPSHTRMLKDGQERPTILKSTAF

[4] = molecular target: T1, OCTN2 (organic cation/carnitine transporter 2); experiment: TP_TRANSPORTER: inhibition of Carnitine uptake (Carnitine: 0.010? uM, Aldosterone: 500 uM) in OCTN2-expressing HEK293 cells; format: functional, cell-based; set-up: scale not given: the % may be the effect or the level left; settings: HEK293 cells that express OCTN2, probe Carnitine, read-out: Activity
[5] = molecular target: T2, Organic cation/carnitine transporter 2; experiment: TP_TRANSPORTER: inhibition of Carnitine uptake (Carnitine: 0.010? uM, Arginine: 500 uM) in OCTN2-expressing HEK293 cells; format: functional, cell-based; settings: hek293, 500 µM
[6] = molecular target: T2, Organic cation/carnitine transporter 2; experiment: TP_TRANSPORTER: inhibition of Carnitine uptake (Carnitine: 0.010? uM, Carnosine: 500 uM) in OCTN2-expressing HEK293 cells; format: functional, cell-based; settings: hek293, 500 µM
[7] = molecular target: T1, OCTN2 (organic cation/carnitine transporter 2); experiment: TP_TRANSPORTER: inhibition of Carnitine uptake (Carnitine: 0.010? uM, Cefsulodin: 500 uM) in OCTN2-expressing HEK293 cells; format: functional, cell-based; set-up: scale not given: the % may be the effect or the level left; settings: HEK293 cells that express OCTN2, probe Carnitine, read-out: Activity
[8] = molecular target: T2, Organic cation/carnitine transporter 2; experiment: TP_TRANSPORTER: inhibition of Carnitine uptake (Carnitine: 0.010? uM, Cephaloglycin: 500 uM) in OCTN2-expressing HEK293 cells; format: functional, cell-based; settings: hek293, 500 µM
[9] = molecular target: T2, Organic cation/carnitine transporter 2; experiment: TP_TRANSPORTER: inhibition of Carnitine uptake (Carnitine: 0.010? uM, Cephalotin: 500 uM) in OCTN2-expressing HEK293 cells; format: functional, cell-based; settings: hek293, 500 µM
[10] = molecular target: T1, OCTN2 (organic cation/carnitine transporter 2); experiment: in vitro; settings: HEK293 cells that express OCTN2, probe Carnitine
Description: TP_TRANSPORTER: inhibition of Carnitine uptake (Carnitine: 0.010? uM, Cimetidine: 500 uM) in OCTN2-expressing HEK293 cells

[11] = molecular target: T1, OCTN2 (organic cation/carnitine transporter 2); experiment: in vitro; settings: HEK293 cells that express OCTN2, probe Carnitine; remark: listed apart in the source
Description: TP_TRANSPORTER: inhibition of Carnitine uptake (Carnitine: 0.010? uM, Clonidine: 500 uM) in OCTN2-expressing HEK293 cells

[12] = molecular target: T1, OCTN2 (organic cation/carnitine transporter 2); experiment: TP_TRANSPORTER: inhibition of Carnitine uptake (Carnitine: 0.010? uM, Corticosterone: 500 uM) in OCTN2-expressing HEK293 cells; format: functional, cell-based; set-up: scale not given: the % may be the effect or the level left; settings: HEK293 cells that express OCTN2, probe Carnitine, read-out: Activity
[13] = molecular target: T2, Organic cation/carnitine transporter 2; experiment: TP_TRANSPORTER: inhibition of Carnitine uptake (Carnitine: 0.010? uM, Creatine: 500 uM) in OCTN2-expressing HEK293 cells; format: functional, cell-based; settings: hek293, 500 µM
[14] = molecular target: T2, Organic cation/carnitine transporter 2; experiment: TP_TRANSPORTER: inhibition of Carnitine uptake (Carnitine: 0.010? uM, Creatinine: 500 uM) in OCTN2-expressing HEK293 cells; format: functional, cell-based; settings: hek293, 500 µM
[15] = molecular target: T1, OCTN2 (organic cation/carnitine transporter 2); experiment: TP_TRANSPORTER: inhibition of Carnitine uptake (Carnitine: 0.010? uM, Actinomycin D: 100 uM) in OCTN2-expressing HEK293 cells; format: functional, cell-based; set-up: scale not given: the % may be the effect or the level left; settings: HEK293 cells that express OCTN2, probe Carnitine, read-out: Activity
[16] = molecular target: T1, OCTN2 (organic cation/carnitine transporter 2); experiment: TP_TRANSPORTER: inhibition of Carnitine uptake (Carnitine: 0.010? uM, Emetine: 500 uM) in OCTN2-expressing HEK293 cells; format: functional, cell-based; set-up: scale not given: the % may be the effect or the level left; settings: HEK293 cells that express OCTN2, probe Carnitine, read-out: Activity
[17] = molecular target: T2, Organic cation/carnitine transporter 2; experiment: TP_TRANSPORTER: inhibition of Carnitine uptake (Carnitine: 0.010? uM, Furosemide: 500 uM) in OCTN2-expressing HEK293 cells; format: functional, cell-based; settings: hek293, 500 µM

Structure (SMILES): C[n+]1ccc(-c2ccccc2)cc1
activity at 100 µM [2]: 69.8% | Activity [3]: is not a substrate [-]

Structure (SMILES): N=C(N)NCCC[C@H](N)C(=O)O [ARGININE]
Activity [5]: is not an inhibitor [-]

Structure (SMILES): NC(=O)c1cc[n+](CC2=C(C(=O)O)N3C(=O)[C@@H](NC(=O)[C@@H](c4ccccc4)S(=O)(=O)[O-])[C@H]3SC2)cc1 [CEFSULODIN]
activity at 500 µM [7]: 32.8%

Structure (SMILES): CC(=O)OCC1=C(C(=O)O)N2C(=O)[C@@H](NC(=O)[C@H](N)c3ccccc3)[C@H]2SC1 [CEPHALOGLYCIN]
Activity [8]: is not an inhibitor [-]

Structure (SMILES): CC(=O)OCC1=C(C(=O)O)N2C(=O)[C@@H](NC(=O)Cc3cccs3)[C@H]2SC1 [CEPHALOTHIN]
Activity [9]: is not an inhibitor [-]

Structure (SMILES): CN/C(=N/CCSCc1nc[nH]c1C)NC#N [CIMETIDINE]
Activity [3]: is not a substrate [-] | activity at 500 µM [10]: 66.4%

Structure (SMILES): CN1CC(=O)NC1=N [CREATININE]
Activity [14]: is not an inhibitor [-]

Structure (SMILES): Cc1c2oc3c(C)ccc(C(=O)N[C@@H]4C(=O)N[C@H](C(C)C)C(=O)N5CCC[C@H]5C(=O)N(C)CC(=O)N(C)[C@@H](C(C)C)C(=O)O[C@@H]4C)c3nc-2c(C(=O)N[C@@H]2C(=O)N[C@H](C(C)C)C(=O)N3CCC[C@H]3C(=O)N(C)CC(=O)N(C)[C@@H](C(C)C)C(=O)O[C@@H]2C)c(N)c1=O [DACTINOMYCIN] (I: T[dV]P[Sar][NMeV] / II: T[dV]P[Sar][NMeV]; ester I:1-I:C, II:1-II:C; linker I:N-II:N via Actinocin(9to1))
Activity [3]: is not a substrate [-] | activity at 100 µM [15]: 69%

Structure (SMILES): CC[C@H]1CN2CCc3cc(OC)c(OC)cc3[C@@H]2C[C@@H]1C[C@H]1NCCc2cc(OC)c(OC)cc21 [EMETINE]
activity at 500 µM [16]: 16.6%

Structure (SMILES): NS(=O)(=O)c1cc(C(=O)O)c(NCc2ccco2)cc1Cl [FUROSEMIDE]
Activity [17]: is not an inhibitor [-]

Other lines, results leading:

activity at 500 µM [1]: 8.7%
Structure (SMILES): C[S+](C)CC[C@H](N)C(=O)[O-]

activity at 500 µM [4]: 37.1%
Structure (SMILES): C[C@]12CCC(=O)C=C1CC[C@@H]1[C@@H]2[C@@H](O)C[C@]2(C=O)[C@@H](C(=O)CO)CC[C@@H]12 [ALDOSTERONE]

Activity [6]: is not an inhibitor [-]
Structure (SMILES): NCCC(=O)N[C@@H](Cc1cnc[nH]1)C(=O)O [CARNOSINE]

activity at 500 µM [11]: 67.6%
Structure (SMILES): Clc1cccc(Cl)c1N=C1NCCN1 [CLONIDINE]

activity at 500 µM [12]: 9.3%
Structure (SMILES): C[C@]12C[C@H](O)[C@H]3[C@@H](CCC4=CC(=O)CC[C@@]43C)[C@@H]1CC[C@@H]2C(=O)CO [CORTICOSTERONE]

Activity [13]: is not an inhibitor [-]
Structure (SMILES): CN(CC(=O)O)C(=N)N [CREATINE]
